Assay: Pharmacokinetics of spinosad API capsules and spinosad tablets after oral administration to cats (Example 2)
Conditions: cats, oral; for mean normalized AUC0-∞ / mean normalized Cmax: plasma, normalized to dose
Experimental: The plasma concentrations and resulting pharmacokinetics of spinosad tablets when administered orally to adult cats in the fed or fasted state can be evaluated. Twenty four cats (12 male and 12 female) can be dosed with approximately 80 mg/kg spinosad, as either API in gelatin capsules or as spinosad formulated chewable tablets. Serial blood samples can be collected through 672 hours (28 days) after dose administration. […] Samples can be immediately mixed by inversion several times and stored on ice until centrifuged. The plasma can be collected, split into two approximately equal aliquots and stored frozen at approximately −70° C. until shipped for analysis, and/or analyzed by a validated LC/MS/MS assay.

[1] = group 1: 80 mg/kg spinosad API in gel capsules, fed
[2] = group 2: 80 mg/kg spinosad tablets, fed
[3] = group 3: 80 mg/kg spinosad tablets, fasted

With spinosyn A the “mean Tmax” value [1] was 12 ± 5.2 h, the “mean elimination half-life (t1/2)” value [1] was 327 ± 84.3 h and the “mean normalized AUC0-∞” value [1] was 4,460±1410 hr*ng*kg/mg*mL. The “mean normalized Cmax” value [1] was 60 ± 18 ng·kg/mg/mL, the “mean Tmax” value [2] was 10 ± 3.0 h and the “mean elimination half-life (t1/2)” value [2] was 277 ± 75.5 h. For the same substance, the “mean normalized AUC0-∞” value [2] was 4,480±1180 hr*ng*kg/mg*mL, the “mean normalized Cmax” value [2] was 46 ± 14 ng·kg/mg/mL and the “mean Tmax” value [3] was 6.0 ± 3.7 h. For the same substance, the “mean elimination half-life (t1/2)” value [3] was 193 ± 60.5 h, the “mean normalized AUC0-∞” value [3] was 781 ± 406 ng·kg·h/mg/mL and the “mean normalized Cmax” value [3] was 11 ± 6.6 ng·kg/mg/mL.
